{
  "source": "patent EP1664254B9",
  "about": "“LIQUID LAUNDRY DETERGENT WITH POLYANIONIC AMMONIUM SURFACTANT” (priority 2003, dated 2005)",
  "key": {"[1]": {"conditions": "cited from earlier work"}, "[2]": {"conditions": "cited from earlier work", "remark": "listed apart in the source"}, "[3]": {"experiment": "Water solubility / appearance and pH of solution on mixing, dilution and standing", "format": "physicochemical", "conditions": "TEPA 2.0 g in water 94.0 g", "from_the_text": "In Example 1 (within the scope of the invention), when LAS acid was neutralized with a polyamine (i.e., TEPA), it formed PAAS. As PAAS began forming, the solution became hazy. Upon further addition of the LAS acid, the hazy solution became a dispersion. Upon standing for hours, the dispersion formed a layer of sediment at the bottom of the beaker. Even a very diluted formulation (such as below 0.1%) was hazy.\nThe solution was clear at the all time over the entire pH range, leading to the conclusion that Na-LAS was fully ionized or disassociated.\nSodium xylenesulfonate was added to an aqueous PAAS dispersion to attempt to solubilize PAAS by ion-exchange and/or hydrotrope mechanism.\nExample 1 was repeated, except that fatty acid was used in place of LAS acid. […]\nThis example investigated the solubilization of PAAS in water, with the aid of a solubiliser. A dispersion of PAAS (with LAS and fatty acid as conjugated acid) was mixed with Na-LES solution (59.5% Na-LES, 10% propylene glycol, 6.5% ethanol, and balance of water). […]"}, "[4]": {"conditions": "from CRC Handbook of Chemistry and Physics, 83rd Edition"}, "[5]": {"conditions": "* from Huntsman Technical Bulletin \"Amine applications and properties data applications\""}},
  "note": "Like-named read-outs stand apart in the source and are kept apart here.",
  "data": [
    {"molecule": "CC(N)(O)CN", "note": "(centres unmarked) [1,2-diamino-2-propanol]", "values": [
      {"measurement": "pKa1", "setting": "[1]; [4]", "value": 9.69},
      {"measurement": "pKa2", "setting": "[1]; [4]", "value": 7.93}
    ]},
    {"molecule": "CC(N)CN", "note": "(centres unmarked) [1,2-propanediamine]", "values": [
      {"measurement": "pKa1", "setting": "[1]; [4]", "value": 9.82},
      {"measurement": "pKa2", "setting": "[1]; [4]", "value": 6.61}
    ]},
    {"molecule": "NCCCN", "note": "[1,3-propanediamine]", "values": [
      {"measurement": "pKa2", "setting": "[1]; [4]", "value": 8.88}
    ]},
    {"molecule": "NCCCCN", "note": "[1,4-Butanediamine]", "values": [
      {"measurement": "pKa", "setting": "[1]; [4]", "value": 10.80}
    ]},
    {"molecule": "NCCCCCN", "note": "[1,5-pentanediamine]", "values": [
      {"measurement": "pKa1", "setting": "[1]; [4]", "value": 10.25},
      {"measurement": "pKa2", "setting": "[1]; [4]", "value": 9.13}
    ]},
    {"molecule": "NCCCCCCN", "note": "[1,6-Hexanediamine]", "values": [
      {"measurement": "pKa1", "setting": "[1]; [4]", "value": 11.86},
      {"measurement": "pKa2", "setting": "[1]; [4]", "value": 10.76}
    ]},
    {"molecule": "CC(C)(C)CN", "note": "[2,2-dimethylpropylamine]", "values": [
      {"measurement": "pKa", "setting": "[1]; [4]", "value": 10.15}
    ]},
    {"molecule": "COCCN", "note": "[2-mthyloxyethylamine]", "values": [
      {"measurement": "pKa", "setting": "[1]; [4]", "value": 9.40}
    ]},
    {"molecule": "NC1CCCCC1", "note": "[Cyclohexylamine]", "values": [
      {"measurement": "pKa", "setting": "[1]; [4]", "value": 10.64}
    ]},
    {"molecule": "NCCN", "note": "[Ethylenediamine (EDA), Ethylenediamine]", "values": [
      {"measurement": "pKa", "setting": "[1]; [5]", "value": "9.90*"},
      {"measurement": "pKa1", "setting": "[1]; [4]", "value": 9.92},
      {"measurement": "pKa2", "setting": "[1]; [4]", "value": 6.82}
    ]},
    {"molecule": "[K+].[OH-]", "note": "[KOH, potassium hydroxide]", "values": [
      {"measurement": "pH", "setting": "[2]; 0.01 N", "value": 12.0},
      {"measurement": "pH", "setting": "[2]; 1.0 N aqueous solutions", "value": 14.0}
    ]},
    {"molecule": "CNO", "note": "[Methylhydroxylamine]", "values": [
      {"measurement": "pKa", "setting": "[1]; [4]", "value": 12.50}
    ]},
    {"molecule": "CN(C)CCN(C)C", "note": "[N,N,N',N'-Tetramethyl1,2-ethanediamine]", "values": [
      {"measurement": "pKa1", "setting": "[1]; [4]", "value": 10.40},
      {"measurement": "pKa2", "setting": "[1]; [4]", "value": 8.26}
    ]},
    {"molecule": "[Na+].[OH-]", "note": "[NaOH, sodium hydroxide]", "values": [
      {"measurement": "pH", "setting": "[2]; 0.01 N", "value": 12.0},
      {"measurement": "pH", "setting": "[2]; 1.0 N aqueous solutions", "value": 14.0}
    ]},
    {"molecule": "NCCNCCNCCNCCN", "note": "[TEPA, Tetraethylenepentamine]", "values": [
      {"measurement": "Observations", "setting": "[3]", "value": "Clear"}
    ]},
    {"molecule": "NCCNCCNCCN", "note": "[Triethylenetetramine (TETA), Triethylenetetramine]", "values": [
      {"measurement": "pKa", "setting": "[1]; [5]", "value": "9.80*"}
    ]},
    {"molecule": "ethoxide CH3CH2O^-", "values": [
      {"measurement": "pKa", "setting": "[1]; according to McMurry, Organic Chemistry, p. 45, 1984", "value": 16}
    ]}
  ]
}
